# Assay results from article PMC13252604, “First Generation Proteolysis Targeting Chimeras (PROTACs) for the Treatment of Progeria” (Advanced Science, 2026).
# Target: T1, progerin (Mus musculus, UniProt P48678, DEL608-657)
# T1 construct: endogenous in cells; host or cells: immortalized (SV40-LT) fibroblasts from Lmna G609G/G609G mice
# T1 sequence (P48678 with tags, fused parts or gaps DEL608-657 limits assumed): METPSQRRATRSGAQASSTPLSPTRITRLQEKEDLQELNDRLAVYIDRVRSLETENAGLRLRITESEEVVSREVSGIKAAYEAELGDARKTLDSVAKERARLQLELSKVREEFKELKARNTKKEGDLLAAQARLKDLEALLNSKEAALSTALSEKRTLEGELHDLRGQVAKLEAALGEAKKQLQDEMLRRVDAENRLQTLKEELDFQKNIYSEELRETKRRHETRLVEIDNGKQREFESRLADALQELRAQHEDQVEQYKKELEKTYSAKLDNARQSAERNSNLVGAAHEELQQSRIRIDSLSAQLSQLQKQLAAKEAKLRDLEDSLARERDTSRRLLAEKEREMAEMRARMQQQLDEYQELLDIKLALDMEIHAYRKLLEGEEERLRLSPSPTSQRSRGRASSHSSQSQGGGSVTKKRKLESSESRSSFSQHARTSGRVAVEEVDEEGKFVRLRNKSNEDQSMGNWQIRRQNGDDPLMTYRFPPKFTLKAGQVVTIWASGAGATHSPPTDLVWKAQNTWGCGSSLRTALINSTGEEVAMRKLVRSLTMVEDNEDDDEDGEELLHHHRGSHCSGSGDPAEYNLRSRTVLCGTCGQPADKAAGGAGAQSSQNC
# Assay: Progerin degradation, immunoblot in Lmna^G609G/G609G fibroblasts
# Assay type: cell-based
# Conditions: 8 h; for progerin levels (immunoblot quantification): Lmna^G609G/G609G fibroblasts, 5 µM, vs vehicle
# Procedure: The ability of compounds 2‐6 to degrade progerin was evaluated in Lmna^G609G/G609G fibroblasts, derived from the progeria mouse model that most closely replicates the human disease phenotype. Lamin A/C antibody was used for immunodetection due to its prevalent use in this context, enabling simultaneous visualization of both lamins and progerin [15].
# FIGURE 2 (A) Representative cropped immunoblots and quantification of progerin from Lmna^G609G/G609G fibroblasts. Cells were incubated with vehicle or indicated compound at 5 µM for 8 h. MW, molecular weight (in kDa) markers. (B, C) Concentration and time‐dependency of the reduction of progerin levels induced by compounds 2 and 9. Graphs show quantification of progerin in Lmna^G609G/G609G fibroblasts (immunoblots are shown in Supporting Figure S1). Cells were incubated with vehicle or the indicated compound concentration for 8 h. For time‐course experiments, cells were incubated with vehicle or indicated compound at 5 µM. Bar graphs show mean±sem of 3 independent experiments performed in duplicate. Data were analysed using one‐way ANOVA followed by Dunnett's post–hoc test comparing all groups to the vehicle; ^*, p < 0.05. […]
# 4. Cell lines and culture.
# Progeroid mouse fibroblasts, kindly donated by Prof. Carlos López Otín (Oviedo University, Spain), were isolated from LmnaG609G/G609G mice[19] and wild-type (WT) littermates and immortalized by retroviral transduction with SV40 large T antigen (SV40-LT). Since LmnaG609G/G609G mouse represents the most suitable and widely accepted model of HGPS, as it most faithfully recapitulates the molecular and phenotypic features of the human disease, its use in this study is fully justified. Moreover, although this cell […]
# cells have been extensively validated by additional independent studies.[15, 65, 66] […]
# experiments, nor does it affect the conclusions presented in our study.
# Mouse fibroblasts were grown in Dulbecco’s modified eagle medium (DMEM, Gibco) supplemented with 10% heat inactivated fetal bovine serum (FBS, Gibco), 50 U/mL penicillin, and 50 μg/mL streptomycin (Invitrogen). Human progeroid HGADFN167 LmnaG608G/G608G (G608G) or or healthy HGADFN168 Lmna+/+ (WT) fibroblasts, were obtained from The Progeria Research Foundation (RRIDs CVCL_1Y92 and CVCL_1Y93, respectively) and cultured in DMEM with 20% heat inactivated FBS, 50 U/mL penicillin and 50 μg/mL streptomycin. All cells were incubated in a humidified atmosphere at 37 °C in the presence of 5% CO2 and were confirmed to be free of mycoplasma contamination. […]
# Measurements were performed in triplicate, and each experiment was repeated at least three times. The viability values were calculated from the percentage of viable cells with respect to 100% viability of the vehicle-treated cells.
# 6. Immunoblot and immunocytofluorescence analysis.
# Mouse or human progeroid cells were seeded at density of […] or 5 x 10^4 cells respectively on 12-well plates and incubated for 24 h in DMEM medium. For proteosome-dependency assays, cells were pre-treated either with the proteasome inhibitor (S)-MG132 (20 µM) or with the NEDD8-activating enzyme inhibitor MLN4924 (5 µM) for 2 h prior to […]
# compound exposure. Then, cells were incubated with compound of interest or DMSO for the appropriate time and lysed with cold laemmli buffer (50 mM Tris-HCl pH 7.4, 150 mM NaCl, 1% Igepal) with a mixture of protease and phosphatase inhibitors (1 mM PMSF, 10 mM NaF, 0.3 mg/mL CalyculinA, 1 mM sodium orthovanadate, 10 mM β-glycerol-phosphate; all from Sigma-Aldrich and complete protease inhibitor cocktail, from Roche). Proteins were denatured at 95 ᵒC for 5 min and the lysates were immediately used or stored at -20 ᵒC until use. Samples were analysed by electrophoresis in polyacrylamide gels (All Kd SDS-PAGE, BioRad) and the proteins transferred to nitrocellulose membranes (GE Healthcare, Amersham). After 1 h of incubation in blocking buffer [20 mM Tris pH 7.6, 150 mM NaCl and 0.1% Tween-20 (TBS-T) with […]
SMILES,progerin levels (immunoblot quantification),"progerin-reducing activity in the presence of proteasome inhibitor MG132 (compound 5 µM, pre-treated with (S)-MG132 20 µM 2 h)","progerin-reducing activity in the presence of neddylation inhibitor MLN4924 (compound 5 µM, pre-treated with MLN4924 5 µM 2 h)"
CC1(C)Oc2cc3oc(=O)ccc3cc2C[C@@H]1OC(=O)CCCCC(=O)Oc1ccc2c(c1)CCCN2C(=O)CCl [compound 12],failed to reduce progerin levels,–,–
CC1(C)Oc2cc3oc(=O)ccc3cc2C[C@@H]1OC(=O)CCCCCNc1cccc2c1C(=O)N(C1CCC(=O)NC1=O)C2=O (stereo partly shown) [compound 2],most effective in reducing progerin levels,abolished,abolished
